Test results taken from paper PMC9962029, “Inhibition of Hepatitis B Virus (HBV) by Tachyplesin, a Marine Antimicrobial Cell-Penetrating Peptide” (Pharmaceutics, 2023).
Residues, ends and D or L forms follow the SMILES beside them.

How the values were obtained:
Huh7 cells = assay: MTT cytotoxicity assay in Huh7 cells; format: cell-based, human; details: 48 h, up to 12 µM Tpl, three independent experiments
Method: (§1) MTT assay was used to identify the non-cytotoxic concentrations of Tpl. Cell viability was measured using MTT (3-(4,5_dimethylthaizol-2-yl)-2,5-diphenyltetrazolium bromide) assay. Approximately 10,000 cells were seeded per well in 96-well plates and kept overnight at 37 °C and 5% CO2 to achieve more than 80% confluency. Thereafter, cells were treated with various concentrations of Tpl for 48 h. After 48 h, media was removed, and cells were washed with PBS. MTT reagent was added at a final concentration of 1 mg/mL and kept for 4 h at 37 °C and 5% CO2. Thereafter, 100 µL of DMSO was added to dissolve the formazan crystals formed, and absorbance was determined at a wavelength of 570 nm with a background wavelength of 630 nm (Multiskan GO microplate spectrophotometer, Thermo Scientific, Waltham, MA, USA).

HepG2 cells = assay: MTT cytotoxicity assay in HepG2 cells; format: cell-based, human; details: 48 h, up to 12 µM Tpl, three independent experiments
Method: as §1

In the case of `CC[C@H](C)[C@@H]1NC(=O)CNC(=O)[C@H](CCCNC(=N)N)NC(=O)[C@H](Cc2ccc(O)cc2)NC(=O)[C@@H]2CSSC[C@H](NC1=O)C(=O)N[C@@H](Cc1ccc(O)cc1)C(=O)N[C@@H](CCCNC(=N)N)C(=O)N[C@@H](CCCNC(=N)N)C(=O)N[C@H](C(=O)N[C@@H](CCCNC(=N)N)C(=O)NCC(=O)N[C@@H](CCCCN)C(N)=O)CSSC[C@H](NC(=O)[C@H](Cc1c[nH]c3ccccc13)NC(=O)[C@@H](N)CCCCN)C(=O)N[C@@H](Cc1ccccc1)C(=O)N[C@@H](CCCNC(=N)N)C(=O)N[C@@H](C(C)C)C(=O)N2` [Tpl] (HELM PEPTIDE1{K.W.C.F.R.V.C.Y.R.G.I.C.Y.R.R.C.R.G.K.[am]}$PEPTIDE1,PEPTIDE1,3:R3-16:R3|PEPTIDE1,PEPTIDE1,7:R3-12:R3$$$V2.0), the Cell viability (Huh7 cells) is reported as “more than 85%” and the Cell viability (HepG2 cells) is reported as “more than 85%”.
